Measurements as given in patent publication US20120252801A1, “ANTIFUNGAL COMPOUNDS” (Katholieke Universiteit Leuven, K.U.Leuven R&D, priority 2009, published 2012).
Values after ≈ are worked out from the molar mass of the structure shown.

Key:
[1] = test system: C. glabrata; assay: Minimal fungicidal concentration (MFC) against C. glabrata; type: cell-based, Candida glabrata; settings: Nakaseomyces glabratus; 24 h at 37° C. in PBS; less than 1% survival relative to DMSO control
Description: (§1) Two-fold dilution series of the compounds were prepared in 50% DMSO. 5 μl of these series were added to 95 μl PBS buffer inoculated with 1/500 cells of an overnight culture of either C. albicans, C. glabrata or C. krusei (final DMSO conc 2%). 2% DMSO served as negative control. After 24 h incubation at 37° C. of these cultures with the antifungal compounds in PBS, the cell cultures were plated on YPD agar and colony forming units (CFUs) were determined after incubation of the plates for 2 days. MFC was determined as the minimal concentration of a compound resulting in less than 1% survival of the yeast culture relative to the DMSO control.

[2] = test system: A. fumigatus; assay: Minimal inhibitory concentration (MIC) against A. fumigatus; type: cell-based; settings: Aspergillus fumigatus; minimal concentration that inhibits growth
[3] = test system: Aspergillus flavus; assay: Minimal inhibitory concentration (MIC) against A. flavus; type: cell-based; settings: 24 h at 25° C. in ½ PDB, minimal concentration that inhibits growth
Description: (§2) To determine the MIC and MFC of a compound against Aspergillus flavus, Fusarium oxysporum or F. culmorum, a 2-fold dilution series of the compounds of the invention was incubated with the corresponding spore suspension in ½ PDB (potato dextrose broth, Difco) (2×10^4 spores/ml). […] MFC was determined as the minimal concentration of a compound resulting in less than 1% survival of the fungal culture relative to the DMSO control.

[4] = test system: C. albicans SC5314; assay: Minimal fungicidal concentration (MFC) against C. albicans; type: cell-based; settings: Candida albicans, 24 h at 37° C. in PBS, less than 1% survival relative to DMSO control
Description: as §1

[5] = test system: Fusarium oxysporum; assay: Minimal inhibitory concentration (MIC) against F. oxysporum; type: cell-based; settings: 24 h at 25° C. in ½ PDB, minimal concentration that inhibits growth
Description: as §2

MIC [2] [µg/mL]	MIC [3] [µg/mL]	MIC [5] [µg/mL]	SMILES	MFC [1] [µg/mL]	MFC [4] [µg/mL]
0.8 (≈ 2.1 µM)	12.5 (≈ 32.9 µM)		CCN1CC(c2ccccc2)OC(=O)C1CC(=O)Nc1ccc(C(C)C)cc1 (stereo not shown) [CPD-01, 2-(4-ethyl-2-oxo-6-phenylmorpholin-3-yl)-N-(4-isopropylphenyl)acetamide]	12.5 (≈ 32.9 µM)	12.5 (≈ 32.9 µM)
0.8 (≈ 2.1 µM)	6.25 (≈ 16.4 µM)		CCN1C[C@H](c2ccccc2)OC(=O)C1CC(=O)Nc1ccc(C(C)C)cc1 (stereo partly drawn) [CPD-02, 2-((6S)-4-ethyl-2-oxo-6-phenylmorpholin-3-yl)-N-(4-isopropylphenyl)acetamide]	12.5 (≈ 32.9 µM)	12.5 (≈ 32.9 µM)
0.8 (≈ 2.51 µM)	6.25 (≈ 19.6 µM)		CCN1C[C@H](C)OC(=O)C1CC(=O)Nc1ccc(C(C)C)cc1 (stereo partly drawn) [CPD-03, 2-((6S)-4-ethyl-6-methyl-2-oxomorpholin-3-yl)-N-(4-isopropylphenyl)acetamide]	6.25 (≈ 19.6 µM)	12.5 (≈ 39.3 µM)
0.8 (≈ 2.1 µM)	12.5 (≈ 32.9 µM)		CCN1C[C@@H](c2ccccc2)OC(=O)C1CC(=O)Nc1ccc(C(C)C)cc1 (stereo partly drawn) [CPD-04, 2-((6R)-4-ethyl-2-oxo-6-phenylmorpholin-3-yl)-N-(4-isopropylphenyl)acetamide]	6.25 (≈ 16.4 µM)	12.5 (≈ 32.9 µM)
0.8 (≈ 2.51 µM)	6.25 (≈ 19.6 µM)		CCN1C[C@@H](C)OC(=O)C1CC(=O)Nc1ccc(C(C)C)cc1 (stereo partly drawn) [CPD-05, 2-((6R)-4-ethyl-6-methyl-2-oxomorpholin-3-yl)-N-(4-isopropylphenyl)acetamide]	6.25 (≈ 19.6 µM)	12.5 (≈ 39.3 µM)
50 (≈ 151 µM)	> 50	> 50	CCN1CC(C)(C)OC(=O)C1CC(=O)NC1CCc2ccccc21 (stereo not shown) [CPD-09, N-(2,3-dihydro-1H-inden-1-yl)-2-(4-ethyl-6,6-dimethyl-2-oxomorpholin-3-yl)acetamide]	50 (≈ 151 µM)	25 (≈ 75.7 µM)
12.5 (≈ 36 µM)	> 50	> 50	CCN1CC(C)(C)OC(=O)C1CC(=O)Nc1ccc2scnc2c1 (stereo not shown) [CPD-10, N-(benzo[d]thiazol-5-yl)-2-(4-ethyl-6,6-dimethyl-2-oxomorpholin-3-yl)acetamide]	> 50	> 50
12.5 (≈ 41.1 µM)	50 (≈ 164 µM)	> 50	CCN1CC(C)(C)OC(=O)C1CC(=O)NCc1ccccc1 (stereo not shown) [CPD-12, N-benzyl-2-(4-ethyl-6,6-dimethyl-2-oxomorpholin-3-yl)acetamide]	25 (≈ 82.1 µM)	12.5 (≈ 41.1 µM)
> 50	> 50	> 50	CCN1CC(C)(C)OC(=O)C1CC(=O)NC1CCN(Cc2ccccc2)CC1 (stereo not shown) [CPD-14, N-(1-benzylpiperidin-4-yl)-2-(4-ethyl-6,6-dimethyl-2-oxomorpholin-3-yl)acetamide]	> 50	25 (≈ 64.5 µM)
6.25 (≈ 19.6 µM)	25 (≈ 78.5 µM)	> 50	CCN1CC(C)(C)OC(=O)C1CC(=O)NCCc1ccccc1 (stereo not shown) [CPD-18, 2-(4-ethyl-6,6-dimethyl-2-oxomorpholin-3-yl)-N-phenethylacetamide]	50 (≈ 157 µM)	25 (≈ 78.5 µM)
25 (≈ 84.9 µM)	50 (≈ 170 µM)	50 (≈ 170 µM)	CCN1CC(C)(C)OC(=O)C1CC(=O)NCc1ccco1 (stereo not shown) [CPD-23, 2-(4-ethyl-6,6-dimethyl-2-oxomorpholin-3-yl)-N-(furan-2-ylmethyl)acetamide]	> 50	50 (≈ 170 µM)
50 (≈ 195 µM)	> 50	> 50	CCCNC(=O)CC1C(=O)OC(C)(C)CN1CC (stereo not shown) [CPD-36, 2-(4-ethyl-6,6-dimethyl-2-oxomorpholin-3-yl)-N-propylacetamide]	> 50	25 (≈ 97.5 µM)
50 (≈ 168 µM)	50 (≈ 168 µM)	50 (≈ 168 µM)	CCN1CC(C)(C)OC(=O)C1CC(=O)NCCC(C)(C)C (stereo not shown) [CPD-38, N-(3,3-dimethylbutyl)-2-(4-ethyl-6,6-dimethyl-2-oxomorpholin-3-yl)acetamide]	12.5 (≈ 41.9 µM)	25 (≈ 83.8 µM)
25 (≈ 84.4 µM)	> 50	> 50	CCN1CC(C)(C)OC(=O)C1CC(=O)NCC(F)(F)F (stereo not shown) [CPD-39, 2-(4-ethyl-6,6-dimethyl-2-oxomorpholin-3-yl)-N-(2,2,2-trifluoroethyl)acetamide]	> 50	50 (≈ 169 µM)
25 (≈ 80.5 µM)	50 (≈ 161 µM)	> 50	CCN1CC(C)(C)OC(=O)C1CC(=O)NCC1CCCCC1 (stereo not shown) [CPD-47, N-(cyclohexylmethyl)-2-(4-ethyl-6,6-dimethyl-2-oxomorpholin-3-yl)acetamide]	6.25 (≈ 20.1 µM)	25 (≈ 80.5 µM)
1.6 (≈ 4.29 µM)	6.25 (≈ 16.7 µM)	25 (≈ 67 µM)	CCN1CC(C)(C)OC(=O)C1CC(=O)NCc1ccc(Cl)c(Cl)c1 (stereo not shown) [CPD-50, N-(3,4-dichlorobenzyl)-2-(4-ethyl-6,6-dimethyl-2-oxomorpholin-3-yl)acetamide]	3.12 (≈ 8.36 µM)	12.5 (≈ 33.5 µM)
			CCN1CC(C)(C)OC(=O)C1CC(=O)NCc1ccccc1Cl (stereo not shown) [CPD-57, N-(2-chlorobenzyl)-2-(4-ethyl-6,6-dimethyl-2-oxomorpholin-3-yl)acetamide]		25 (≈ 73.8 µM)
			CCN1CC(C)(C)OC(=O)C1CC(=O)NCc1ccccc1C (stereo not shown) [CPD-69, 2-(4-ethyl-6,6-dimethyl-2-oxomorpholin-3-yl)-N-(2-methylbenzyl)acetamide]		25 (≈ 78.5 µM)
			CCN1CC(C)(C)OC(=O)C1CC(=O)NCc1cccc(C)c1 (stereo not shown) [CPD-70, 2-(4-ethyl-6,6-dimethyl-2-oxomorpholin-3-yl)-N-(3-methylbenzyl)acetamide]		25 (≈ 78.5 µM)
			CCN1CC(C)(C)OC(=O)C1CC(=O)NCc1ccc(C(F)(F)F)cc1 (stereo not shown) [CPD-71, 2-(4-ethyl-6,6-dimethyl-2-oxomorpholin-3-yl)-N-(4-(trifluoromethyl)benzyl)acetamide]		25 (≈ 67.1 µM)
			CCN1CC(C)(C)OC(=O)C1CC(=O)NCc1ccc(OC)cc1 (stereo not shown) [CPD-72, 2-(4-ethyl-6,6-dimethyl-2-oxomorpholin-3-yl)-N-(4-methoxybenzyl)acetamide]		25 (≈ 74.8 µM)
			CCN1CC(C)(C)OC(=O)C1CC(=O)NCc1ccc(-c2ccccc2)cc1 (stereo not shown) [CPD-73, N-(biphenyl-4-ylmethyl)-2-(4-ethyl-6,6-dimethyl-2-oxomorpholin-3-yl)acetamide]		25 (≈ 65.7 µM)
12.5 (≈ 32.7 µM)	> 25	> 25	CC(C)c1ccc(NC(=O)CC2C(=O)OC(C)(C)CN2S(C)(=O)=O)cc1 (stereo not shown) [CPD-75, 2-(6,6-dimethyl-4-(methylsulfonyl)-2-oxomorpholin-3-yl)-N-(4-isopropylphenyl)acetamide]	> 25	> 25
3.12 (≈ 9.81 µM)	25 (≈ 78.5 µM)	> 25	CCN1CC(C)(C)OC(=O)C1CC(=O)NCc1ccc(C)cc1 (stereo not shown) [CPD-76, 2-(4-ethyl-6,6-dimethyl-2-oxomorpholin-3-yl)-N-(4-methylbenzyl)acetamide]	6.25 (≈ 19.6 µM)	25 (≈ 78.5 µM)
3.12 (≈ 8.39 µM)	25 (≈ 67.1 µM)	25 (≈ 67.1 µM)	CCN1CC(C)(C)OC(=O)C1CC(=O)NCc1ccccc1C(F)(F)F (stereo not shown) [CPD-77, 2-(4-ethyl-6,6-dimethyl-2-oxomorpholin-3-yl)-N-(2-(trifluoromethyl)benzyl)acetamide]	12.5 (≈ 33.6 µM)	25 (≈ 67.1 µM)
6.25 (≈ 16.8 µM)	> 25	> 25	CCN1CC(C)(C)OC(=O)C1CC(=O)NCc1cccc(C(F)(F)F)c1 (stereo not shown) [CPD-78, 2-(4-ethyl-6,6-dimethyl-2-oxomorpholin-3-yl)-N-(3-(trifluoromethyl)benzyl)acetamide]	12.5 (≈ 33.6 µM)	25 (≈ 67.1 µM)
12.5 (≈ 37.4 µM)	> 25	> 25	CCN1CC(C)(C)OC(=O)C1CC(=O)NCc1ccccc1OC (stereo not shown) [CPD-79, 2-(4-ethyl-6,6-dimethyl-2-oxomorpholin-3-yl)-N-(2-methoxybenzyl)acetamide]	25 (≈ 74.8 µM)	> 25
6.25 (≈ 18.7 µM)	> 25	> 25	CCN1CC(C)(C)OC(=O)C1CC(=O)NCc1cccc(OC)c1 (stereo not shown) [CPD-80, 2-(4-ethyl-6,6-dimethyl-2-oxomorpholin-3-yl)-N-(3-methoxybenzyl)acetamide]	12.5 (≈ 37.4 µM)	25 (≈ 74.8 µM)
3.12 (≈ 8.21 µM)	25 (≈ 65.7 µM)	25 (≈ 65.7 µM)	CCN1CC(C)(C)OC(=O)C1CC(=O)NCc1ccccc1-c1ccccc1 (stereo not shown) [CPD-81, N-(biphenyl-2-ylmethyl)-2-(4-ethyl-6,6-dimethyl-2-oxomorpholin-3-yl)acetamide]	12.5 (≈ 32.9 µM)	12.5 (≈ 32.9 µM)
3.12 (≈ 8.21 µM)	25 (≈ 65.7 µM)	25 (≈ 65.7 µM)	CCN1CC(C)(C)OC(=O)C1CC(=O)NCc1cccc(-c2ccccc2)c1 (stereo not shown) [CPD-82, N-(biphenyl-3-ylmethyl)-2-(4-ethyl-6,6-dimethyl-2-oxomorpholin-3-yl)acetamide]	12.5 (≈ 32.9 µM)	12.5 (≈ 32.9 µM)
